Measured values taken from PubChem BioAssay (NCI).
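Interpolation was linear, between the two tested concentrations surrounding the appropriate level; five concentrations were tested over 48 hours in 96-well plates. The concentration for 50% growth inhibition is given as GI50. TGI marks complete inhibition of growth.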

Experiments:
Assay in all cases: DTP human tumour cell line panel, 48 h
KM12 colon = test system: KM12 colon
DMS 273 small cell lung = test system: DMS 273 small cell lung
DMS 114 small cell lung = test system: DMS 114 small cell lung
SF-268 CNS = test system: SF-268 CNS
SF-295 CNS = test system: SF-295 CNS
DLD-1 colon = test system: DLD-1 colon
UACC-62 melanoma = test system: UACC-62 melanoma
KM20L2 colon = test system: KM20L2 colon
HCT-15 colon = test system: HCT-15 colon
IGROV1 ovarian = test system: IGROV1 ovarian
MCF7 breast = test system: MCF7 breast
MALME-3M melanoma = test system: MALME-3M melanoma

| SMILES | TGI (KM12 colon) | TGI (DMS 273 small cell lung) | TGI (DMS 114 small cell lung) | TGI (SF-268 CNS) | TGI (SF-295 CNS) | TGI (DLD-1 colon) | TGI (UACC-62 melanoma) | TGI (KM20L2 colon) | TGI (HCT-15 colon) | TGI (IGROV1 ovarian) | TGI (MCF7 breast) | TGI (MALME-3M melanoma) | GI50 (KM12 colon) | GI50 (SF-268 CNS) | GI50 (MCF7 breast) | GI50 (SF-295 CNS) | GI50 (MALME-3M melanoma) | GI50 (UACC-62 melanoma) | GI50 (HCT-15 colon) | GI50 (IGROV1 ovarian) |
| --- | --- | --- | --- | --- | --- | --- | --- | --- | --- | --- | --- | --- | --- | --- | --- | --- | --- | --- | --- | --- |
| COc1ccc(OC)c(NC(=O)C(=O)C(C(=O)c2ccccc2F)C2OC(=O)c3ccccc32)c1 (stereo not drawn) | > 100 µM | > 100 µM | > 100 µM | > 100 µM | > 100 µM | > 100 µM | > 100 µM | > 100 µM | > 100 µM | > 100 µM | – | – | – | – | – | – | – | – | – | – |
| CC(=O)OC1CC2(O)C(CCC3(C)C(c4ccc(=O)oc4)CCC32O)C2(C)C1=CC(O)C1OC12 (stereo not drawn) | 0.301 µM | 0.135 µM | 0.0335 µM | 0.0874 µM | 0.261 µM | 0.179 µM | 0.117 µM | 0.533 µM | 0.32 µM | 0.753 µM | 0.402 µM | 0.13 µM | – | – | – | – | – | – | – | – |
| CC(=O)OCC(=O)O[C@@H]1[C@H]2[C@@H](OC(=O)c3ccccc3)[C@@H](C)C[C@]2(O)[C@H](OC(C)=O)[C@@]2(C)C[C@]1(OC(C)=O)C[C@H]1C(=O)C(C)(C)[C@@H](OC(C)=O)[C@@H]12 | > 25 µM | – | – | > 25 µM | > 25 µM | – | > 25 µM | – | > 25 µM | > 25 µM | > 25 µM | > 25 µM | – | – | – | – | – | – | – | – |
| CN(C)CCNc1c([N+](=O)[O-])sc2ccc(Cl)cc12 | > 100 µM | – | – | > 100 µM | > 100 µM | – | 62.7 µM | – | > 100 µM | > 100 µM | > 100 µM | > 100 µM | – | – | – | – | – | – | – | – |
| CCOC(=O)/C=C(/C=C\COC1CCCCO1)c1ccccc1 (stereo not drawn) | 79.3 µM | – | – | > 100 µM | 76.1 µM | – | 88.6 µM | – | > 100 µM | > 100 µM | > 100 µM | > 100 µM | – | – | – | – | – | – | – | – |
| O=C1CS/C(=N/N=C/c2cn(Cc3ccc(Cl)cc3Cl)c3ccccc23)N1 | > 100 µM | – | – | > 100 µM | > 100 µM | – | > 100 µM | – | > 100 µM | > 100 µM | 61.6 µM | > 100 µM | – | – | – | – | – | – | – | – |
| c1c(N2CCOCC2)ssc1=[N+]1CCOCC1 | > 100 µM | > 100 µM | > 100 µM | > 100 µM | > 100 µM | > 100 µM | > 100 µM | > 100 µM | > 100 µM | > 100 µM | – | > 100 µM | – | – | – | – | – | – | – | – |
| COc1cc(OC)cc(Oc2nc3cc(F)c(F)cc3nc2-c2ccccc2)c1 | > 100 µM | – | – | > 100 µM | > 100 µM | – | > 100 µM | – | > 100 µM | > 100 µM | > 100 µM | > 100 µM | – | – | – | – | – | – | – | – |
| COc1cc2[nH]c(=O)c3cc(-c4ccccc4)cc4c(Cl)nc(c1OC)c2c43 | > 100 µM | – | – | > 55.9 µM | > 100 µM | – | 34.6 µM | – | > 75.8 µM | > 91 µM | 7.71 µM | 17.1 µM | – | – | – | – | – | – | – | – |
| C[N+]1(CCN=C=NC2CCCCC2)CCOCC1 | > 100 µM | – | – | > 100 µM | > 100 µM | – | > 100 µM | – | > 100 µM | > 100 µM | > 100 µM | > 100 µM | – | – | – | – | – | – | – | – |
| CCCCN1C(=O)CC2[C@@H]3CCc4cc(OC)ccc4C3CC[C@]2(C)C1=O (stereo partly drawn) | > 10 µM | – | – | > 10 µM | > 10 µM | – | > 10 µM | – | > 10 µM | > 10 µM | > 10 µM | > 10 µM | – | – | – | – | – | – | – | – |
| COc1ccc2c(c1)-c1c(c3cc(OC)ccc3n1CCN(C)C)CC2 | 36.7 µM | – | – | 37.3 µM | 34.3 µM | – | 22.8 µM | – | 28.9 µM | 25.9 µM | 28.9 µM | 31 µM | – | – | – | – | – | – | – | – |
| Nc1c(S(N)(=O)=O)cc(S(N)(=O)=O)cc1S(N)(=O)=O | > 100 µM | – | – | > 100 µM | > 100 µM | – | > 100 µM | – | > 100 µM | > 100 µM | > 100 µM | > 100 µM | – | – | – | – | – | – | – | – |
| Clc1ccc(OCc2nnc(COc3ccc(OCc4nnc(COc5ccc(Cl)cc5Cl)o4)c(Cl)c3)o2)c(Cl)c1 | > 100 µM | – | – | 64.3 µM | > 100 µM | – | > 100 µM | – | > 100 µM | 38.1 µM | > 100 µM | > 100 µM | – | – | – | – | – | – | – | – |
| CC1(C)N=C(N)N=C(N)N1c1cccc(OCc2cccc(N)c2)c1 | > 100 µM | – | – | > 100 µM | > 100 µM | – | > 100 µM | – | > 100 µM | > 100 µM | > 100 µM | > 100 µM | – | – | – | – | – | – | – | – |
| Cc1cc(S(=O)(=O)Nc2n[nH]c(Nc3ccccc3)n2)c(SCC(=O)O)cc1Cl | > 100 µM | – | – | > 100 µM | > 100 µM | – | > 100 µM | – | > 100 µM | > 100 µM | > 100 µM | > 100 µM | – | – | – | – | – | – | – | – |
| CCN(CCCCCCCCCCN1CC(=O)N(CCCCCCCCCCN(CC)Cc2ccccc2OC)CC1=O)Cc1ccccc1OC | 2.24 µM | – | – | 2.96 µM | 3.02 µM | – | 3.89 µM | – | 5.34 µM | 3.62 µM | 2.81 µM | 3.47 µM | 1.03 µM | 1.49 µM | 1.2 µM | 1.15 µM | 1.64 µM | 2.06 µM | 1.55 µM | 1.57 µM |
| O=c1[nH]c(=O)n(C2CC(O)C(CO)O2)cc1OC/C=C/Cc1ccccc1 (stereo not drawn) | > 100 µM | – | – | > 100 µM | > 100 µM | – | > 100 µM | – | > 100 µM | > 100 µM | > 100 µM | > 100 µM | – | – | – | – | – | – | – | – |
| O=P1(C(O)/C=C/c2ccccc2)N(Cc2ccccc2)[C@@H]2CCCC[C@H]2N1Cc1ccccc1 (stereo partly drawn) | 19.5 µM | – | – | 14.2 µM | 26.8 µM | – | 21.2 µM | – | 43.8 µM | 14.4 µM | 15.1 µM | 8.45 µM | – | – | – | – | – | – | – | – |
| COCC#C[C@@]1(O)CCCCC1CC(OC)OC (stereo partly drawn) | > 100 µM | – | – | > 100 µM | > 100 µM | – | > 100 µM | – | > 100 µM | > 100 µM | > 100 µM | > 100 µM | – | – | – | – | – | – | – | – |
| CCOc1snc(C(Cl)(Cl)Cl)c1Cl | 56.7 µM | – | – | 46.1 µM | 74.7 µM | – | > 100 µM | – | > 100 µM | > 100 µM | 78.9 µM | 80.2 µM | – | – | – | – | – | – | – | – |
| CCOc1ccc(N=Nc2ccc3cc(/C(C)=N/NC(=O)/C(C#N)=C\c4ccc(N(CCC#N)CCC#N)cc4)c(=O)oc3c2)cc1 | > 10 µM | – | – | > 10 µM | > 10 µM | – | > 10 µM | – | > 10 µM | > 10 µM | > 10 µM | > 10 µM | – | – | – | – | – | – | – | – |
| CC(C)(C)c1cc(/C=C2/NC(=O)NC2=O)cc(C(C)(C)C)c1O | 28.5 µM | – | – | 28.8 µM | 29.1 µM | – | 30.5 µM | – | 28.2 µM | 31.1 µM | 29.9 µM | 34.6 µM | – | – | – | – | – | – | – | – |
| COc1ccc(C2Oc3c(OC)cc(CCCO)cc3C2CO)cc1OC (stereo not drawn) | > 100 µM | – | – | > 100 µM | > 100 µM | – | > 100 µM | – | > 100 µM | > 100 µM | > 100 µM | > 100 µM | – | – | – | – | – | – | – | – |
| NC(Cc1[nH]nc2ccccc12)C(=O)O (stereo not drawn) | > 100 µM | – | – | > 100 µM | > 100 µM | – | > 100 µM | – | > 100 µM | > 100 µM | > 100 µM | > 100 µM | – | – | – | – | – | – | – | – |
| O=C1/C(=C/c2ccc(Cl)cc2)CCCc2ccc(F)cc21 | 34.2 µM | – | – | 46.9 µM | > 100 µM | – | 47 µM | – | > 100 µM | 68.3 µM | > 100 µM | 31.8 µM | 12.9 µM | 19.9 µM | 8.35 µM | 31.4 µM | 6.45 µM | 16.1 µM | 22.1 µM | 14.6 µM |
